Data as given in PubChem BioAssay AID1963847 (Molecular Pharmacology Branch, DTP, NCI, 2024).

Test system: 415267-285-R-J2-PDC complex spheroid viability
Assay: Anticancer human tumor 415267-285-R-J2-PDC patient-derived breast carcinoma cell line growth inhibition [POLQ]
Conditions: for IC50: curve of first compound; for viability, T/C: stronger effect = lower value
Procedure, shortened: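 Three-cell-type spheroids modelling solid tumor plus stroma served as the readout system; POL inhibitors were tested individually and in combination, concentration ranges set by clinical Cmax where known.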

[1] = second compound 0.0316 µM, first compound 0.0316 µM
[2] = second compound 0.0316 µM, first compound 0.1 µM
[3] = second compound 0.0316 µM, first compound 0.316 µM
[4] = second compound 0.0316 µM, first compound 1 µM
[5] = second compound 0.1 µM, first compound 0.0316 µM
[6] = second compound 0.1 µM, first compound 0.1 µM
[7] = second compound 0.1 µM, first compound 0.316 µM
[8] = second compound 0.1 µM, first compound 1 µM
[9] = second compound 0.316 µM, first compound 0.0316 µM
[10] = second compound 0.316 µM, first compound 0.1 µM
[11] = second compound 0.316 µM, first compound 0.316 µM
[12] = second compound 0.316 µM, first compound 1 µM
[13] = second compound 1 µM, first compound 0.0316 µM
[14] = second compound 1 µM, first compound 0.1 µM
[15] = second compound 1 µM, first compound 0.316 µM
[16] = second compound 1 µM, first compound 1 µM
[17] = second compound 3.16 µM, first compound 0.0316 µM
[18] = second compound 3.16 µM, first compound 0.1 µM
[19] = second compound 3.16 µM, first compound 0.316 µM
[20] = second compound 3.16 µM, first compound 1 µM
[21] = second compound 10 µM, first compound 0.0316 µM
[22] = second compound 10 µM, first compound 0.1 µM
[23] = second compound 10 µM, first compound 0.316 µM
[24] = second compound 10 µM, first compound 1 µM
[25] = second compound 0.0316 µM, first compound 3.16 µM
[26] = second compound 0.0316 µM, first compound 10 µM
[27] = second compound 0.1 µM, first compound 3.16 µM
[28] = second compound 0.1 µM, first compound 10 µM
[29] = second compound 0.316 µM, first compound 3.16 µM
[30] = second compound 0.316 µM, first compound 10 µM
[31] = second compound 1 µM, first compound 3.16 µM
[32] = second compound 1 µM, first compound 10 µM
[33] = second compound 3.16 µM, first compound 3.16 µM
[34] = second compound 3.16 µM, first compound 10 µM
[35] = second compound 10 µM, first compound 3.16 µM
[36] = second compound 10 µM, first compound 10 µM
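Note: spheroids exposed to compounds for one week before readout.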
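Throughout, for viability, T/C: luminescence used as stand-in measure of viable cells; 100% = DMSO vehicle control viability.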

COc1cccc(OCCCN)c1-c1cc(Nc2cnc(C#N)cn2)n[nH]1 + Cc1cccc(N(C)C(=O)C2C(O)CCN2c2nc(C)cc(C(F)(F)F)c2C#N)c1
IC50 (second compound 0.0316 µM): 7.34 nM
IC50 (second compound 0.1 µM): 6.81 nM
IC50 (second compound 0.316 µM): 6.37 nM
IC50 (second compound 1 µM): 5.94 nM
IC50 (second compound 3.16 µM): 5.9 nM
IC50 (second compound 10 µM): 5.77 nM
viability, T/C (second compound 0.0316 µM, first compound 0.00316 µM): 116%
viability, T/C (second compound 0.0316 µM, first compound 0.01 µM): 25.7%
viability, T/C [1]: 6.57%
viability, T/C [2]: 5.98%
viability, T/C [3]: 5.5%
viability, T/C [4]: 4.04%
viability, T/C (second compound 0.1 µM, first compound 0.00316 µM): 106%
viability, T/C (second compound 0.1 µM, first compound 0.01 µM): 22.1%
viability, T/C [5]: 5.33%
viability, T/C [6]: 6.85%
viability, T/C [7]: 7.24%
viability, T/C [8]: 4.47%
viability, T/C (second compound 0.316 µM, first compound 0.00316 µM): 107%
viability, T/C (second compound 0.316 µM, first compound 0.01 µM): 13%
viability, T/C [9]: 5.56%
viability, T/C [10]: 4.64%
viability, T/C [11]: 4.82%
viability, T/C [12]: 4.6%
viability, T/C (second compound 1 µM, first compound 0.00316 µM): 99.2%
viability, T/C (second compound 1 µM, first compound 0.01 µM): 9.45%
viability, T/C [13]: 5.53%
viability, T/C [14]: 5.41%
viability, T/C [15]: 6.23%
viability, T/C [16]: 4.72%
viability, T/C (second compound 3.16 µM, first compound 0.00316 µM): 97.3%
viability, T/C (second compound 3.16 µM, first compound 0.01 µM): 10.1%
viability, T/C [17]: 7.08%
viability, T/C [18]: 5.58%
viability, T/C [19]: 5.55%
viability, T/C [20]: 4.93%
viability, T/C (second compound 10 µM, first compound 0.00316 µM): 94.3%
viability, T/C (second compound 10 µM, first compound 0.01 µM): 9.4%
viability, T/C [21]: 6.2%
viability, T/C [22]: 10.2%
viability, T/C [23]: 5.74%
viability, T/C [24]: 5.13%

CCCS(=O)(=O)Nc1ccc(F)c(C(=O)c2c[nH]c3ncc(-c4ccc(Cl)cc4)cc23)c1F + COC1C(OC(N)=O)C(O)C(Oc2ccc3c(O)c(NC(=O)c4ccc(O)c(CC=C(C)C)c4)c(=O)oc3c2C)OC1(C)C
IC50 (second compound 0.0316 µM): > 10000 nM
IC50 (second compound 0.1 µM): > 10000 nM
IC50 (second compound 0.316 µM): > 10000 nM
IC50 (second compound 1 µM): > 10000 nM
IC50 (second compound 3.16 µM): > 10000 nM
IC50 (second compound 10 µM): > 10000 nM
viability, T/C [1]: 123%
viability, T/C [2]: 102%
viability, T/C [3]: 94.5%
viability, T/C [4]: 89%
viability, T/C [25]: 110%
viability, T/C [26]: 66.4%
viability, T/C [5]: 103%
viability, T/C [6]: 100%
viability, T/C [7]: 97.3%
viability, T/C [8]: 101%
viability, T/C [27]: 111%
viability, T/C [28]: 66.5%
viability, T/C [9]: 101%
viability, T/C [10]: 105%
viability, T/C [11]: 99%
viability, T/C [12]: 104%
viability, T/C [29]: 92.4%
viability, T/C [30]: 70.9%
viability, T/C [13]: 103%
viability, T/C [14]: 106%
viability, T/C [15]: 94%
viability, T/C [16]: 94.8%
viability, T/C [31]: 92.6%
viability, T/C [32]: 64.7%
viability, T/C [17]: 109%
viability, T/C [18]: 96.6%
viability, T/C [19]: 90.2%
viability, T/C [20]: 95.2%
viability, T/C [33]: 101%
viability, T/C [34]: 60.5%
viability, T/C [21]: 116%
viability, T/C [22]: 106%
viability, T/C [23]: 97.8%
viability, T/C [24]: 91.4%
viability, T/C [35]: 93.2%
viability, T/C [36]: 88.4%

O=c1[nH]cc(F)c(=O)[nH]1 + COC1C(OC(N)=O)C(O)C(Oc2ccc3c(O)c(NC(=O)c4ccc(O)c(CC=C(C)C)c4)c(=O)oc3c2C)OC1(C)C
IC50 (second compound 0.0316 µM): 194 nM
IC50 (second compound 0.1 µM): 197 nM
IC50 (second compound 0.316 µM): 162 nM
IC50 (second compound 1 µM): 176 nM
IC50 (second compound 3.16 µM): 205 nM
IC50 (second compound 10 µM): 203 nM
viability, T/C [1]: 94.1%
viability, T/C [2]: 72.7%
viability, T/C [3]: 33.1%
viability, T/C [4]: 31.1%
viability, T/C [25]: 27.2%
viability, T/C [26]: 37.1%
viability, T/C [5]: 86.9%
viability, T/C [6]: 73.1%
viability, T/C [7]: 34.2%
viability, T/C [8]: 23.7%
viability, T/C [27]: 26.5%
viability, T/C [28]: 39.3%
viability, T/C [9]: 97.7%
viability, T/C [10]: 63.8%
viability, T/C [11]: 31%
viability, T/C [12]: 27.2%
viability, T/C [29]: 26.7%
viability, T/C [30]: 34.5%
viability, T/C [13]: 85.8%
viability, T/C [14]: 63.5%
viability, T/C [15]: 36.8%
viability, T/C [16]: 25.3%
viability, T/C [31]: 26.4%
viability, T/C [32]: 29.9%
viability, T/C [17]: 94.6%
viability, T/C [18]: 76.3%
viability, T/C [19]: 34.2%
viability, T/C [20]: 27.1%
viability, T/C [33]: 25.4%
viability, T/C [34]: 37.2%
viability, T/C [21]: 92%
viability, T/C [22]: 70%
viability, T/C [23]: 37.8%
viability, T/C [24]: 29.9%
viability, T/C [35]: 25.3%
viability, T/C [36]: 35.7%
